Reference: article PMC9491549, “Reverse mutants of the catalytic 19 kDa mutant protein (nanoKAZ/nanoLuc) from Oplophorus luciferase with coelenterazine as preferred substrate” (PLoS ONE, 2022)

How the values were obtained:
[1] = target: T1, native Oplophorus luciferase (OpLase) (Oplophorus gracilirostris, UniProt Q9GV45); test: luminescence inhibition with coelenterazine; assay type: biochemical; details: coelenterazine 1.2 × 10^−4 M (so in the source); 1 μg each in 200 μL), 30 mM Tris-HCl, 10 mM EDTA, 1 min preincubation; no inhibitor = 100
T1 construct: 19 kDa and 35 kDa subunits, 106 kDa; with Oplophorus-luciferin 2-monooxygenase non-catalytic subunit
Excerpt: luminescence inhibition with coelenterazine on native Oplophorus luciferase (OpLase)

[2] = target: T2, Gaussia luciferase (GLase) (Gaussia princeps (in: crustaceans), UniProt Q9BLZ2); test: luminescence inhibition with coelenterazine; assay type: biochemical; details: coelenterazine 1.2 × 10^−4 M (so in the source); 1 μg each in 200 μL), 30 mM Tris-HCl, 10 mM EDTA, 1 min preincubation; no inhibitor = 100
T2 construct: C-terminal His tag, signal peptide removed by secretion; stably expressed in CHO-K1/dhfr- cells (pcDNA3-hGL-H), Ni column
T2 sequence (Q9BLZ2 18-185): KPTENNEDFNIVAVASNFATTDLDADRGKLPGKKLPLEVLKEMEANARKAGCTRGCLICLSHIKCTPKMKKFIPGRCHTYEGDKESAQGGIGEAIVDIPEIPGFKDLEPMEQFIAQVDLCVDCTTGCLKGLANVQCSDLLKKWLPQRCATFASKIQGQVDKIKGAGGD
Excerpt: luminescence inhibition with coelenterazine on Gaussia luciferase (GLase)

T1 sequence (Q9GV45 28-196): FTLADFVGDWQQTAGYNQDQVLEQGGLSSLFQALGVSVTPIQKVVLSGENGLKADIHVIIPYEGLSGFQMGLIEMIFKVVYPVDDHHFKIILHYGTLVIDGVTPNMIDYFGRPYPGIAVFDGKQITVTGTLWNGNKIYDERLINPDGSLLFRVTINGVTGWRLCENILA
T1 sequence (Q9GV46 40-359 partner): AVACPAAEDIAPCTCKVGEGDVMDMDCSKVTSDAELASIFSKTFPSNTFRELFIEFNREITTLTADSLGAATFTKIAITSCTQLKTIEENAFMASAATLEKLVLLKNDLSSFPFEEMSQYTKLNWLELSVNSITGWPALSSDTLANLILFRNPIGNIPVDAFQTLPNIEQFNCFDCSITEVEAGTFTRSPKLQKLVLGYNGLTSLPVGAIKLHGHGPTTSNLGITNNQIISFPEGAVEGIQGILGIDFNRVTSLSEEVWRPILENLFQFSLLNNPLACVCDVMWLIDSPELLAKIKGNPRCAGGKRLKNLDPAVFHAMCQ

Relative luminescence activity (Imax, %) / OpLase ^a [1]	Relative luminescence activity (Imax, %) / GLase ^a [2]	Relative luminescence activity (Imax, %) / QL-nanoKAZ ^a [2]	SMILES
19.7%	5.3%		O=C1c2cc(-c3ccc(O)cc3)cc(Cc3ccccc3)c2C[C@]1(CO)Cc1ccc(O)cc1 [(S)-HM-daCTZ]
5.1%	0.5%		O=C1c2cc(-c3ccc(O)cc3)cc(Cc3ccccc3)c2C[C@H]1Cc1ccc(O)cc1 [(R)-daCTZ]
2.1%		0.4%	O=C1c2cc(-c3ccc(O)cc3)cc(Cc3ccccc3)c2C[C@@H]1Cc1ccc(O)cc1 [(S)-daCTZ]
33.5%	23.5%		O=C1c2cc(-c3ccc(O)cc3)cc(Cc3ccccc3)c2C[C@@]1(CO)Cc1ccc(O)cc1 [(R)-HM-daCTZ]
